Test results as given in publication PMC5936891, “A focused library synthesis and cytotoxicity of quinones derived from the natural product bolinaquinone” (Royal Society Open Science, 2018).
“Also recorded” adds a separate entry of the source.

What was measured:
MCF-7 (breast carcinoma) = assay: MTT in vitro growth inhibition assay, MCF-7; assay type: cell-based; settings: Homo sapiens; for inhibition at 25 µM: MCF7, 25 µM of drug, 72 h, read-out: Percentage of Cell Growth Inhibition MCF-7; for GI50: MCF7, 72 h drug exposure
Text: (§1) With the desired bolinaquinone analogues 12–43 in hand, we examined their cytotoxicity against a panel of 11 tumour cell lines: HT29 (colon carcinoma), U87 and SJ-G2 (glioblastoma), MCF-7 (breast carcinoma), A2780 (ovarian carcinoma), H460 (lung carcinoma), A431 (skin carcinoma), Du145 (prostate carcinoma), BE2-C (neuroblastoma), MIA (pancreatic carcinoma), SMA (spontaneous murine astrocytoma) and a normal breast cell line (MCF10A). The inclusion of the MCF-10A cell line allowed a determination of a crude measure of relative toxicity while noting that the ultimate arbiter of toxicity requires in vivo evaluation. All analogues were initially screened at a 25 µM drug concentration.
(§2) Stock solutions were prepared as follows and stored at −20°C: drugs were stored as 40 mM solutions in DMSO. All cell lines were cultured in a humidified atmosphere 5% CO2 at 37°C. The cancer cell lines were maintained in Dulbecco's modified Eagle's medium (DMEM) (Trace Biosciences, Australia) supplemented with 10% fetal bovine serum, 10 mM sodium bicarbonate, penicillin (100 IU ml^−1), streptomycin (100 µg ml^−1) and glutamine (4 mM). The non-cancer MCF10A cell line was cultured in DMEM:F12 (1 : 1) cell culture media, 5% heat-inactivated horse serum, supplemented with penicillin (50 IU ml^−1), streptomycin (50 µg ml^−1), 20 mM Hepes, L-glutamine (2 mM), epidermal growth factor (20 ng ml^−1), hydrocortisone (500 ng ml^−1), cholera toxin (100 ng ml^−1) and insulin (10 ug ml^−1).
(§3) Cells in logarithmic growth were transferred to 96-well plates. Cytotoxicity was determined by plating cells in duplicate in 100 µl medium at a density of 2500–4000 cells per well. On day 0 (24 h after plating), when the cells were in logarithmic growth, 100 μl of medium with or without the test agent was added to each well. After 72 h, drug exposure growth inhibitory effects were evaluated using the MTT (3-[4,5-dimethylthiazol-2-yl]-2,5-diphenyl-tetrazolium bromide) assay and the absorbance read at 540 nm. Percentage growth inhibition was determined at a fixed drug concentration of 25 µM. A value of 100% is indicative of complete cell growth inhibition. Those analogues showing appreciable percentage growth inhibition underwent further dose–response analysis allowing for the calculation of a GI50 value. This value is the drug concentration at which cell growth is 50% inhibited based on the difference between the optical density values on day 0 and those at the end of drug exposure.

H460 (lung carcinoma) = assay: MTT in vitro growth inhibition assay, H460; assay type: cell-based; settings: Homo sapiens; for inhibition at 25 µM: NCI-H460, 25 µM of drug, 72 h, read-out: Percentage of Cell Growth Inhibition H460
Text: as §1, §2, §3

[1] = test system: A2780 (ovarian carcinoma); assay: MTT in vitro growth inhibition assay, A2780; assay type: cell-based; settings: Homo sapiens; for inhibition at 25 µM: 25 µM of drug, 72 h, read-out: Percentage of Cell Growth Inhibition A2780; for GI50: 72 h drug exposure
Text: as §1, §2, §3

SJ-G2 (glioblastoma) = assay: MTT in vitro growth inhibition assay, SJ-G2; assay type: cell-based; settings: for inhibition at 25 µM: 25 µM of drug, 72 h, read-out: Percentage of Cell Growth Inhibition SJ-G2; for GI50: 72 h drug exposure
Text: as §1, §2, §3

U87 (glioblastoma) = assay: MTT in vitro growth inhibition assay, U87; assay type: cell-based; settings: for inhibition at 25 µM: 25 µM of drug, 72 h, read-out: Percentage of Cell Growth Inhibition U87; for GI50: 72 h drug exposure
Text: as §1, §2, §3

[2] = test system: Du145 (prostate carcinoma); assay: MTT in vitro growth inhibition assay, Du145; assay type: cell-based; settings: Homo sapiens; for inhibition at 25 µM: DU-145, 25 µM of drug, 72 h, read-out: Percentage of Cell Growth Inhibition Du145
Text: as §1, §2, §3

[3] = test system: MCF10A (normal breast cell line); assay: MTT in vitro growth inhibition assay, MCF10A; assay type: cell-based; settings: Homo sapiens, MCF-10A; for inhibition at 25 µM: 25 µM of drug, 72 h, read-out: Percentage of Cell Growth Inhibition MCF10A; for GI50: normal breast cell line, 72 h drug exposure
Text: as §1, §2, §3

[4] = test system: SMA (spontaneous murine astrocytoma); assay: MTT in vitro growth inhibition assay, SMA; assay type: cell-based; settings: Mus musculus; for inhibition at 25 µM: 25 µM of drug, 72 h, read-out: Percentage of Cell Growth Inhibition SMA; for GI50: 72 h drug exposure
Text: as §1, §2, §3

A431 (skin carcinoma) = assay: MTT in vitro growth inhibition assay, A431; assay type: cell-based; settings: Homo sapiens; for inhibition at 25 µM: A-431, 25 µM of drug, 72 h, read-out: Percentage of Cell Growth Inhibition A431
Text: as §1, §2, §3

[5] = test system: panel of 11 cancer cell lines and one normal cell line; assay: Cytotoxicity across the whole cell line panel (MTT); assay type: cell-based; settings: for activity at the initial screening concentration (to proceed to GI50 determination): 25 µM single dose
Text: as §1, §2, §3

[6] = test system: MIA (pancreatic carcinoma); assay: MTT in vitro growth inhibition assay, MIA; assay type: cell-based; settings: for inhibition at 25 µM: 25 µM of drug, 72 h, read-out: Percentage of Cell Growth Inhibition MIA; for GI50: 72 h drug exposure
Text: as §1, §2, §3

BE2-C (neuroblastoma) = assay: MTT in vitro growth inhibition assay, BE2-C; assay type: cell-based; settings: Homo sapiens, BE(2)-C, 72 h; for inhibition at 25 µM: 25 µM of drug, read-out: Percentage of Cell Growth Inhibition BE2-C; for GI50: 72 h drug exposure
Text: as §1, §2, §3

HT29 (colon carcinoma) = assay: MTT in vitro growth inhibition assay, HT29; assay type: cell-based; settings: Homo sapiens; for inhibition at 25 µM: HT-29, 25 µM of drug, 72 h, read-out: Percentage of Cell Growth Inhibition HT29
Text: as §1, §2, §3

Row | Compound | inhibition at 25 µM (MCF-7 (breast carcinoma)) | inhibition at 25 µM (H460 (lung carcinoma)) | inhibition at 25 µM [1] | inhibition at 25 µM (SJ-G2 (glioblastoma)) | inhibition at 25 µM (U87 (glioblastoma)) | inhibition at 25 µM [2] | inhibition at 25 µM [3] | inhibition at 25 µM [4] | inhibition at 25 µM (A431 (skin carcinoma)) | activity at the initial screening concentration (to proceed to GI50 determination) [5] | inhibition at 25 µM [6] | inhibition at 25 µM (BE2-C (neuroblastoma)) | inhibition at 25 µM (HT29 (colon carcinoma)) | melting point | further results
1 | COC1=CC(=O)C(OC)=C(c2cc(OC)ccc2OC)C1=O [compound 21, 2,5-Dimethoxy-3-(2,5-dimethoxyphenyl)cyclohexa-2,5-diene-1,4-dione] | 13 ± 6% | 17 ± 7% | 26 ± 9% | 16 ± 7% | 14 ± 2% | 17 ± 5% | < 10% | 26 ± 4% | 12 ± 3% | not sufficiently active | 15 ± 2% | 49 ± 11% | 16 ± 4% | – | –
2 | COC1=CC(=O)C(OC)=C(c2cccc(OC)c2)C1=O [compound 19, 3-(3-Methoxyphenyl)-2,5-dimethoxycyclohexa-2,5-diene-1,4-diene] | 36 ± 14% | 19 ± 1% | 60 ± 11% | 26 ± 12% | 20 ± 5% | 24 ± 6% | 15 ± 3% | 40 ± 8% | 22 ± 2% | not sufficiently active | 20 ± 6% | 70 ± 5% | 13 ± 4% | 72 to 75 °C | –
3 | CCCNC1=CC(=O)C(NCCC)=C(c2ccccc2-c2ccccc2)C1=O [compound 41, 3-(Biaryl-2-yl)-2,5-bis-(propylamino)cyclohexa-2,5-diene-1,4-dione] | 70 ± 3% | 62 ± 1% | 68 ± 2% | 60 ± 2% | 82 ± 3% | 71 ± 2% | 83 ± 2% | 68 ± 6% | 90 ± 1% | sufficient activity | 76 ± 1% | 74 ± 7% | 75 ± 2% | 177 to 179 °C | GI50 (MCF-7 (breast carcinoma)): 2 ± 0.1 µM; GI50 (H460 (lung carcinoma); NCI-H460, 72 h drug exposure): 2.3 ± 0.1 µM; GI50 [1]: 2 ± 0.1 µM; GI50 (SJ-G2 (glioblastoma)): 3.5 ± 1 µM; GI50 (U87 (glioblastoma)): 5.1 ± 1 µM; GI50 ([2]; DU-145, 72 h, 72 h drug exposure): 1.9 ± 0.1 µM; GI50 [3]: 1.7 ± 0.2 µM; GI50 [4]: 3.3 ± 1 µM; GI50 (A431 (skin carcinoma); A-431, 72 h, 72 h drug exposure): 2 ± 0.1 µM; potency enhancement over parent analogue ([5]; 41 vs parent 29, 43 vs parent 33, on introduction of amine substituents): greater than or equal to 20 fold; GI50 ([5]; average over the cell line panel, read-out: average GI50): 2.5 µM; GI50 [6]: 1.9 µM; GI50 (BE2-C (neuroblastoma)): 1.9 µM; GI50 (HT29 (colon carcinoma); HT-29, 72 h drug exposure): 1.9 µM
4 | COC1=CC(=O)C(OC)=C(c2ccc3ccccc3c2)C1=O [compound 24, 2,5-Dimethoxy-3-(naphthalene-3-yl)cycloheza-2,5-diene-1,4-dione] | 22 ± 6% | 12 ± 4% | 54 ± 15% | 20 ± 4% | 15 ± 4% | 11% | 13 ± 6% | 31 ± 10% | < 10% | not sufficiently active; also recorded: inactive | < 10% | 65 ± 20% | < 10% | 137 to 139 °C | –
5 | COC1=CC(=O)C(OC)=C(c2cccc(C)c2)C1=O [compound 14, 2,5-Dimethoxy-3-m-tolylcyclohexa-2,5-diene-1,4-dione] | 22 ± 11% | 19 ± 2% | 59 ± 13% | 38 ± 18% | 21 ± 7% | 28 ± 8% | 16 ± 5% | 36 ± 7% | 26 ± 5% | not sufficiently active | 24 ± 7% | 80 ± 10% | 12 ± 3% | 74 to 77 °C | –
6 | CCCCc1ccc(C2=C(OC)C(=O)C(c3ccc(CCCC)cc3)=C(OC)C2=O)cc1 [compound 31, 2,5-Bis(4-butylphenyl)-3,6-dimethoxycyclohexa-2,5-diene-1,4-dione] | 73 ± 5% | 52 ± 9% | 55 ± 9% | 56 ± 6% | 53 ± 3% | 83 ± 2% | 66 ± 2% | 54 ± 4% | 75 ± 2% | – | 72 ± 2% | 68 ± 3% | 73 ± 3% | 177 to 179 °C | –
7 | CCCCc1ccc(C2=C(OC)C(=O)C=C(OC)C2=O)cc1 [compound 15, 3-(4-Butylphenyl)-2,5-dimethoxycyclohexa-2,5-diene-1,4-dione] | 19 ± 7% | < 10% | 39 ± 14% | 12 ± 6% | 10 ± 7% | < 10% | < 10% | 25 ± 10% | < 10% | not sufficiently active | < 10% | 41 ± 18% | < 10% | – | –
8 | COC1=CC(=O)C(OC)=C(c2ccc(CO)cc2)C1=O [compound 17, 3-(4-(Hydroxymethyl)phenyl)-2,5-dimethoxycyclohexa-2,5-diene-1,4-diene] | < 10% | < 10% | 53 ± 5% | 22 ± 4% | < 10% | < 10% | < 10% | 21 ± 10% | < 10% | – | < 10% | > 100% | < 10% | 116 to 118 °C | GI50 (MCF-7 (breast carcinoma)): 36 ± 2 µM; GI50 [1]: 22 ± 0.9 µM; GI50 (SJ-G2 (glioblastoma)): 33 ± 1.3 µM; GI50 (U87 (glioblastoma)): 45 ± 2.3 µM; GI50 [3]: 49 µM; GI50 [4]: 37 ± 0.7 µM; GI50 [6]: 37 ± 1 µM; GI50 (BE2-C (neuroblastoma)): ~11 µM
